This is an account of results in patent US12042500B2, “Mucoadhesive drug delivery system for ocular administration of fluoroquinolone antibiotics” (HYDERABAD EYE RESEARCH FOUNDATION, priority 2018, dated 2024).

One series relates to excised human cornea. The method, then:
HPLC analysis was performed using Shimadzu Prominence UFLC, LC-20 system (Shimadzu, Japan) with a C18 column (Shimpack GIST column, 5 μm, 4.6×250 mm). The mobile phase used for besifloxacin analysis comprised of a mixture of 0.5% triethylamine solution (pH adjusted to 3.0 with 10% ortho-phosphoric acid) and acetonitrile (ACN) (74:26, v/v) (Costa et al, 2014). […] The injection volume was 50 μl for all the standards and test solutions. The flow rate and column temperature were maintained at 1.0 ml/min and 25° C., respectively. […] The amount of drug release was determined using respective standard calibration curves.
Excised human cornea was washed with PBS and mounted between donor and receptor compartments with epithelial side facing donor chamber. Receptor medium contained PBS maintained at 37±1° C. temperature using heated water circulator unit. The donor compartment was charged with 0.4% of drug containing polymeric hydrogel, standard drug solution or marketed formulation. Samples (300 μl) were withdrawn from the receptor chamber at predetermined time intervals including 0.5, 1, 2, 4, 6, 12 and 24 h. Samples were analyzed by HPLC method described above. […] Corneal permeation parameters were calculated from cumulative amount of drug permeated vs. time profile. Flux (J) was calculated from the slope of the linear portion of cumulative amount of permeated vs. time profile. Lag time (ttag) was calculated by extrapolating the linear portion of the curve to time axis. Permeability coefficient (Kp) was calculated using Equation 1.

Series [1] concerns Staphylococcus aureus (ATCC 25923) infected human cornea. The series can be described thus: Antibacterial activity in ex vivo corneal infection model. Type of series: cell-based. To be noted: infected cornea incubated 30 min with 0.4% formulation, then 24 h; 10^−7 dilution; n=3. The method, then:
Human corneas were incubated in antibiotic free DMEM media overnight at 37° C. […] After 24 h incubation at 37° C., the infected corneas were washed again with PBS and used for further studies. The infection-free corneas were used as controls (Pinnock, et. al, 2017). Infected cornea was washed, and a metal ring was placed on the corneoscleral button, creating a watertight seal. Drug formulations (0.4%) were added to the center of the ring and incubated for 0.5 and 1.5 h at 37° C. Later, the corneas were washed thoroughly with PBS to remove the excess formulation and incubated for 24 h at 37° C. The cornea was then homogenized, and the resulting suspension was serially diluted. A 10 μl sample was spotted on agar plates at 10^−5, 10^−6, 10^−7, 10^−8 dilutions for colony enumeration. The colonies were counted visually and expressed in colony forming units (CFU) using Equation 2. The antibacterial activity of drugs loaded in hydrogel formulations was evaluated against Staphylococcus aureus (ATCC 25923) infected human cornea (n=3).

Series [2] is described as follows: In vitro drug release study, Franz diffusion cell with dialysis membrane. The format is physicochemical. To be noted: PBS pH 7.4, 33±1° C., 2 mg drug in donor. The method, then:
In vitro release of drugs was performed using Franz diffusion cell apparatus (Permegear Inc., USA). […] The donor compartment was loaded with 2 mg of drug containing polymeric hydrogel or standard drug solution or marketed formulation. […] Samples were analyzed using HPLC method described above.

Marks after values point to notes of the source that are not given here. Bounds are passed on as bounds.

With `N[C@@H]1CCCCN(c2c(F)cc3c(=O)c(C(=O)O)cn(C4CC4)c3c2Cl)C1` [Besifloxacin Std., besifloxacin], the Permeability coefficient in the series on excised human cornea is listed as 15.57 ×10^−3, cm^2/h. Further, in the series on excised human cornea (human, 0.4 %), the Diffusion coefficient is given as 21.34 ×10^−3, the Flux was determined as 36.80 ± 13.99 μg/cm^2/h and the Lag time was 1.22 ± 0.39 h. The Corneal tissue concentration in the series on excised human cornea (human, 0.5 h, 0.4 %) is 398±50 μg/gram of tissue. Further, in the series on excised human cornea (human, 24 h, 0.4 %), the Cumulative amount permeated came to 1267.42 ± 37.56 μg/cm^2 and the “Cumulative amount permeated across cornea” value amounted to 1267 ± 38 µg. Also, the CFU/ml in series [1] is 2.5 ± 0.82 CFU/ml (×10^9). The “Time to 100% release / complete diffusion across the membrane” value in series [2] is no more than 10 h.

Turning to `C[C@H]1COc2c(N3CCN(C)CC3)c(F)cc3c(=O)c(C(=O)O)cn1c23` [Levofloxacin Std., levofloxacin], in series [1], the CFU/ml is on record as 8.3 ± 5.10 CFU/ml (×10^9).
